Measured values taken from patent US20040071718A1, “Local nasal immunotherapy for allergen-induced airway inflammation” (priority 2002, published 2004).
Marks after values point to notes of the source that are not given here.

Key:
Type in all cases: in vivo
[1] = test system: Balb/c mice; assay: Leukocyte subpopulations in BALF of rDp2-sensitized mice after local nasal immunotherapy (LNIT); conditions: BALF
Procedure: Male Balb/c mice were obtained from the National Laboratory Breeding Research Center in Taiwan and were raised in a specific pathogen-free environment. The mice used were between six and eight weeks of age. Groups of six mice were caged separately according to their treatment. Recombinant Dermatophoides pteronyssinus group 2 (rDp2) was prepared as previously described(Tsai J J, et al. Int Arch Allergy Immunol 2000;121:205-10). Dp2 28-40 and Dp2 28-40A were obtained from Dr. Jonathan Lamb (Respiratory Medicine Unit, Edinburgh University, Medical School, Edinburgh, UK) (Verhoef A, and Lamb J R. J Immunol 2000;164:6034-6040). FIP was obtained from Dr. Ko Jiunn-Liang (Institute of Toxicology, Chung Shan Medical University, Taichung, R O C) (J L Ko, et al. Eur. J. Biochem. 1995;228:244-249).
(§1) Mice were immunized by way of an intraperitoneal (IP) injection of 1 μg/0.1 mL rDp2 emulsified in 4.0 mg/0.062mL aluminum hydroxide Al(OH)3 (Whitehall Lab Ltd. Punchbowl, NSW, Australia) on day 0 and day 7. Following immunization, local nasal immunotherapy (LNIT) was conducted daily from day 14 to day 35 with Dp2 28-40, Dp2 28-40A, FIP alone or FIP mixed with either Dp2 28-40 or Dp2 28-40A (FIP, 50 μg/mouse/day; Dp2 peptide, 1 μg/20 μL) in PBS with 10% glycerol. Normal saline (NS) and irrelevant allergen Bt were used as a negative control. […] On day 28, mice were lightly anesthetized with an IP injection of 60 mg/kg of sodium pentobarbital (Sigma Chemical Co., St Louis, Mo., U.S.A.) and inoculated intratracheally (IT) with 1 μg/50 μL of rDp 2 on day 28 and day 35. Two days subsequent to the second IT inoculation, the mice were sacrificed following the assessment of their pulmonary function (FIG. 1).
Subsequent to pulmonary function measurement having been completed, bronchoalveolar lavage (BAL) was performed using the following procedure. BAL fluids were collected with lmL sterile endotoxin-free saline washes of each lung via the trachea for each mouse. BAL cells were washed once with PBS by centrifugation at 200×g at 4° C. Subsequent to washing, the cells were resuspended in RPMI-1640 (Sigma Chemical Co.). The total leukocyte count in BAL fluids was determined using a hemocytometer. The BAL fluids were aspirated and stored at −70° C. until needed for assay purposes. Subsequent to total leukocyte counting, a cytospin preparation of 100 μL BAL fluids (2×10^5 cells/mL) was conducted, the cells being cytocentrifuged directly onto glass slides at 350 r.p.m. for five minutes using a Cytospin 3 cytocentrifuge (Shandon Scientific Limited, Astmoor, Runcorn, UK), and then stained with Liu stain (Tonyar Diagnostic Inc, Taipei & Hien, Taiwan). The differential counts were performed for a total of 200 leukocyte cells.

[2] = test system: Balb/c mice; assay: Cytokine producing cells in peripheral blood (flow cytometry) after LNIT; conditions: for IL-5/IFN-γ (CD4) / IL-5/IFN-γ (CD8): peripheral blood
Procedure: (§2) Male Balb/c mice were obtained from the National Laboratory Breeding Research Center in Taiwan and were raised in a specific pathogen-free environment. The mice used were between six and eight weeks of age. Groups of six mice were caged separately according to their treatment.
as §1
Two-color staining methods were used to analyze IFN-γ and IL-5 expression amongst CD4 cells. Leukocytes derived from peripheral blood (PBL) were stimulated with PMA (50 ng/mL), ionomycin (2 μM) and GolgiStop (Cytofix/Cytoperm Plus Pharmingen San Diego, Calif., U.S.A.) for five hours and then washed twice using PBS. The cells were stained with CD4-PerCP, CD8-FITC or IgG1-FITC (PharMingen) at room temperature (RT) for 30 minutes and then washed. Cells were fixed with cytofix/cytoperm at RT for 30 minutes and then stained with anti-cytokine antibody and IgG2a-PE (PharMingen) at RT for 30 minutes and subsequently washed. Both IgG1-FITC and IgG2a-PE were purchased from the same manufacturer as the anticytokine antibodies and the negative controls. Cells were resuspended in 0.5 mL PBS containing 0.1% w/v sodium azide. Mean fluorescence was measured by means of Becton Diskinson flow cytometry (Becton Diskinson, Calif., U.S.A.). A total of 2,000 cells was analyzed for each sample.

[3] = test system: Balb/c mice; assay: IL-5 and IFN-γ levels in sera and BALF (ELISA) after LNIT; conditions: Example 2, mean ± SEM, n = 6
Procedure: as §2, §1
IFN-γ and IL-5 were measured using commercially-available ELISA kits, using a specific mouse monoclonal Ab that recognized different epitopes of the cytokine molecules. The lowest detector range was 10 pg/mL. Given that the BALF was considered to be at too diluted a concentration, IL-4 was not measured.

[4] = Example 1, LNIT day 14-35, rDp2 IT challenge, mean ± SEM of six animals
[5] = Example 2 (FIP study), mean ± SEN of six mice
[6] = Example 1, percentage of positive stained cells in the PBMC of six mice
[7] = Example 2, percentage of total leukocytes in the peripheral blood of six mice

Compound: C[C@@H]1C[C@H]2[C@@H]3CCC4=CC(=O)C=C[C@]4(C)[C@@]3(F)[C@@H](O)C[C@]2(C)[C@@]1(O)C(=O)CO [DEX, Dexamethasone, reference compound]
- Eosinophil [1, 4]: 3.2 ± 0.4* 10^4 cells/mL
- Lymphocyte [1, 4]: 9.4 ± 1.5* 10^4 cells/mL
- Macrophage [1, 4]: 29.2 ± 4.4* 10^4 cells/mL
- Neutrophil [1, 4]: 6.6 ± 1.0* 10^4 cells/mL
- Total cell [1, 4]: 46.4 ± 2.2* 10^4 cells/mL
- Eosinophil [1, 5]: 3.8 ± 0.5 ×10^4/mL
- Lymphocyte [1, 5]: 15.3 ± 0.6 ×10^4/mL
- Macrophage [1, 5]: 28.3 ± 1.7 ×10^4/mL
- Neutrophil [1, 5]: 8.0 ± 0.8 ×10^4/mL
- CD4^+ [2, 6]: 45.6 percentage
- CD8^+ [2, 6]: 7.0 percentage
- IFN-γ^+/CD4^+ [2, 6]: 7.9 percentage
- IFN-γ^+/CD8^+ [2, 6]: 7.9 percentage
- IL-5^+/CD4^+ [2, 6]: 9.2 percentage
- IL-5^+/CD8^+ [2, 6]: 8.2 percentage
- IL-5/IFN-γ (CD4) ([2]; Example 1, ratio of IL-5 to IFN-γ producing CD4 cells): 1.2
- IL-5/IFN-γ (CD8) ([2]; Example 1, ratio of IL-5 to IFN-γ producing CD8 cells): 1.0
- CD4 [2, 7]: 51.2 percentage
- CD8 [2, 7]: 7.9 percentage
- IFN-γ^+/CD4^+ [2, 7]: 17.7 percentage
- IFN-γ^+/CD8^+ [2, 7]: 14.1 percentage
- IL-5^+/CD4^+ [2, 7]: 15.8 percentage
- IL-5^+/CD8^+ [2, 7]: 14.1 percentage
- IL-5/IFN-γ (CD4) ([2]; Example 2, ratio, CD4 cells): 0.9
- IL-5/IFN-γ (CD8) ([2]; Example 2, ratio, CD8 cells): 1.0
- IFN-γ ([3]; BALF): 9.9 ± 0.6 pg/mL
- IL-5 ([3]; BALF): 19.2 ± 1.2 pg/mL
- IFN-γ ([3]; Sera): 46.2 ± 3.4 pg/mL
- IL-5 ([3]; Sera): 138.0 ± 16.6 pg/mL
